What was measured:
[1] = molecular target: SRSF protein kinase 1 (Homo sapiens) (UniProt Q96SB4); test: SRPK1 SGC Tm panel (DSF); conditions: for ΔTm: Compound concentration 10.0 uM
[2] = molecular target: Casein kinase I isoform delta (Homo sapiens) (UniProt P48730); test: CSNK1D SGC Tm panel (DSF); conditions: for ΔTm: Compound concentration 10.0 uM
[3] = molecular target: Ribosomal protein S6 kinase alpha-1 (Homo sapiens) (UniProt Q15418); test: RPS6KA1 SGC Tm panel (DSF); conditions: for ΔTm: Compound concentration 10.0 uM
Sequence of Ribosomal protein S6 kinase alpha-1 (Homo sapiens) (Q15418 whole entry): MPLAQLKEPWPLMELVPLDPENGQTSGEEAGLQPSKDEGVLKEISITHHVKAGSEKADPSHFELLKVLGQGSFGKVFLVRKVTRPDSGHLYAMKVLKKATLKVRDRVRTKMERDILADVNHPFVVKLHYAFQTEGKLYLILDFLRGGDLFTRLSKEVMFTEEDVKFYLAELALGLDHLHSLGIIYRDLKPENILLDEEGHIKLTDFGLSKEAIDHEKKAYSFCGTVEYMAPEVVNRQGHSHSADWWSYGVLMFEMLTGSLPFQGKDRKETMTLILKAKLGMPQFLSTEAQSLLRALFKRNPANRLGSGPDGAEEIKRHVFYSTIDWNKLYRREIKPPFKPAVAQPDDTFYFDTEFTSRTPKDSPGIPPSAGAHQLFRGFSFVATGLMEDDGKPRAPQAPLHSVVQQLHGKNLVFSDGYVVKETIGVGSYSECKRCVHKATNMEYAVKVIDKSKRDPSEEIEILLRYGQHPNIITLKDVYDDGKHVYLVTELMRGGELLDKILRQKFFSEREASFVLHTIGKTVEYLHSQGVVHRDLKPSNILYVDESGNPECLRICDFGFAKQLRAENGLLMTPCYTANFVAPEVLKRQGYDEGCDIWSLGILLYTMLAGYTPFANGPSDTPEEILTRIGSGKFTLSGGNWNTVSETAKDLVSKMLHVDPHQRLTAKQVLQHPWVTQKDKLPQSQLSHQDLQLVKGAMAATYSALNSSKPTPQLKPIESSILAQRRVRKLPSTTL

[4] = molecular target: Cyclin-dependent kinase 16 (Homo sapiens) (UniProt Q00536); test: PCTK1 SGC Tm panel (DSF); conditions: for ΔTm: Compound concentration 10.0 uM
Sequence of Cyclin-dependent kinase 16 (Homo sapiens) (Q00536 whole entry): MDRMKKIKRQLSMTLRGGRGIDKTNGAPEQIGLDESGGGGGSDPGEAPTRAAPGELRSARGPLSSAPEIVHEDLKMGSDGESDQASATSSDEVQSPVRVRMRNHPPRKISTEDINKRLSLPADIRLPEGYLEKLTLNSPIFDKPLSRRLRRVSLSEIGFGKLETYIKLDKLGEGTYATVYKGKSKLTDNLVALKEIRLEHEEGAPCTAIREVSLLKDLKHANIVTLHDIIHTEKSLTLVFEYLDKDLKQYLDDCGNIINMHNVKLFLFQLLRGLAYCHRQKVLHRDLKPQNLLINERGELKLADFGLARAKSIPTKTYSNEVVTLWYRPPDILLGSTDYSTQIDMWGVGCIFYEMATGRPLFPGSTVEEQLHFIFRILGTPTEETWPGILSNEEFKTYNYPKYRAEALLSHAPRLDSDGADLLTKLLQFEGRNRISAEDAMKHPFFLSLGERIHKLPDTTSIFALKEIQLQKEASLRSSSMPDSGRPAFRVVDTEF

[5] = molecular target: Sigma intracellular receptor 2 (Homo sapiens) (UniProt Q5BJF2); conditions: Compound concentration 10.0 uM
Sequence of Sigma intracellular receptor 2 (Homo sapiens) (Q5BJF2 whole entry): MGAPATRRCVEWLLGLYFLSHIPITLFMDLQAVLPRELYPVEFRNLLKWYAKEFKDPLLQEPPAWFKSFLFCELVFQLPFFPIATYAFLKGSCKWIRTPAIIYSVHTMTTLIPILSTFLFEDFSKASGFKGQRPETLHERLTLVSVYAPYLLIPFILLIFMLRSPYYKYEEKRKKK

[6] = molecular target: Serine/threonine-protein kinase Chk2 (Homo sapiens) (UniProt O96017); test: CHEK2 SGC Tm panel (DSF); conditions: for ΔTm: Compound concentration 10.0 uM
[7] = molecular target: Serine/threonine-protein kinase Nek7 (Homo sapiens) (UniProt Q8TDX7); test: NEK7 SGC Tm panel (DSF); conditions: for ΔTm: Compound concentration 10.0 uM
[8] = molecular target: Mitogen-activated protein kinase 1 (Homo sapiens) (UniProt P28482); test: MAPK1 SGC Tm panel (DSF); conditions: for ΔTm: Compound concentration 10.0 uM
Sequence of Mitogen-activated protein kinase 1 (Homo sapiens) (P28482 whole entry): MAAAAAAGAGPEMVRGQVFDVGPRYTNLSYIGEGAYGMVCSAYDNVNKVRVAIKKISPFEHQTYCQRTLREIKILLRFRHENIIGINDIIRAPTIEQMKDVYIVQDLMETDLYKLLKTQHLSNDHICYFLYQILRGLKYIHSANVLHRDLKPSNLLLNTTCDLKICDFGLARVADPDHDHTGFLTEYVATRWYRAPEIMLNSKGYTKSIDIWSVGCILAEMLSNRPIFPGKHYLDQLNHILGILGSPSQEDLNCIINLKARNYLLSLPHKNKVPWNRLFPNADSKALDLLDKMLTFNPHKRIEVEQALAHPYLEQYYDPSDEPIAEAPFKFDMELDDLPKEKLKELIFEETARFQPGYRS

[9] = molecular target: G protein-coupled receptor kinase 5 (Homo sapiens) (UniProt P34947); test: GPRK5 SGC Tm panel (DSF); conditions: for ΔTm: Compound concentration 10.0 uM
Sequence of G protein-coupled receptor kinase 5 (Homo sapiens) (P34947 whole entry, looked up): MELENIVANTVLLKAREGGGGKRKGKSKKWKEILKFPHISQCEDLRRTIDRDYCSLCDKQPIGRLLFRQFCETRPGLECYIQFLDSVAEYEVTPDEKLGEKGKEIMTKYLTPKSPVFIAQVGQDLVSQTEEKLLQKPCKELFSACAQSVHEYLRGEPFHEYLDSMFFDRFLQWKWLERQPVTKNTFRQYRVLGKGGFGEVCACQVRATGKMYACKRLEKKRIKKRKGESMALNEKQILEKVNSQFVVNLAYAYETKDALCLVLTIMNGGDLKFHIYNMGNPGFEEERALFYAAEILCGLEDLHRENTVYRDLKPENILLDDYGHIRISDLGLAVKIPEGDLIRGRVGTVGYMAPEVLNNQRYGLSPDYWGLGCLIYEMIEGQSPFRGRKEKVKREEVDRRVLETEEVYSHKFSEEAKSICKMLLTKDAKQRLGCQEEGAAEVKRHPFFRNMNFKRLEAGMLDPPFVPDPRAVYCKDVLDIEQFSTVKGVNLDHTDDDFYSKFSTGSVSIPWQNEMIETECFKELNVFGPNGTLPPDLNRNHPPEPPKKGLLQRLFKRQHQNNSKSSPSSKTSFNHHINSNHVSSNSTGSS

[10] = molecular target: Casein kinase II subunit alpha' (Homo sapiens) (UniProt P19784); test: CSNK2A2 SGC Tm panel (DSF); conditions: for ΔTm: Compound concentration 10.0 uM
[11] = molecular target: Calcium/calmodulin-dependent protein kinase type II subunit delta (Homo sapiens) (UniProt Q13557); test: CAMK2D SGC Tm panel (DSF); conditions: for ΔTm: Compound concentration 10.0 uM
Sequence of Calcium/calmodulin-dependent protein kinase type II subunit delta (Homo sapiens) (Q13557 whole entry): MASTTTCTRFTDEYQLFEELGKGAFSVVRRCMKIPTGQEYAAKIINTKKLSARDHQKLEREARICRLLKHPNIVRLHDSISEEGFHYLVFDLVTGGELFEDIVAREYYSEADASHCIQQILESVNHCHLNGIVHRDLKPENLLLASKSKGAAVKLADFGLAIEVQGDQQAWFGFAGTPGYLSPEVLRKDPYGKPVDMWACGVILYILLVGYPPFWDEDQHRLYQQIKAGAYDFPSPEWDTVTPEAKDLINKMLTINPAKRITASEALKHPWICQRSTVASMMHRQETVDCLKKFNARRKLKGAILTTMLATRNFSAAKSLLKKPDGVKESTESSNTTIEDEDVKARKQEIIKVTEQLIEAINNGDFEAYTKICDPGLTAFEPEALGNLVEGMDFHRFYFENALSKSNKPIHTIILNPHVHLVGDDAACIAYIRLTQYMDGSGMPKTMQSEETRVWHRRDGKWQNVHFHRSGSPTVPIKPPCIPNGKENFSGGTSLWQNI

[12] = molecular target: Sodium-dependent noradrenaline transporter (Homo sapiens) (UniProt P23975); conditions: Compound concentration 10.0 uM
Sequence of Sodium-dependent noradrenaline transporter (Homo sapiens) (P23975 whole entry): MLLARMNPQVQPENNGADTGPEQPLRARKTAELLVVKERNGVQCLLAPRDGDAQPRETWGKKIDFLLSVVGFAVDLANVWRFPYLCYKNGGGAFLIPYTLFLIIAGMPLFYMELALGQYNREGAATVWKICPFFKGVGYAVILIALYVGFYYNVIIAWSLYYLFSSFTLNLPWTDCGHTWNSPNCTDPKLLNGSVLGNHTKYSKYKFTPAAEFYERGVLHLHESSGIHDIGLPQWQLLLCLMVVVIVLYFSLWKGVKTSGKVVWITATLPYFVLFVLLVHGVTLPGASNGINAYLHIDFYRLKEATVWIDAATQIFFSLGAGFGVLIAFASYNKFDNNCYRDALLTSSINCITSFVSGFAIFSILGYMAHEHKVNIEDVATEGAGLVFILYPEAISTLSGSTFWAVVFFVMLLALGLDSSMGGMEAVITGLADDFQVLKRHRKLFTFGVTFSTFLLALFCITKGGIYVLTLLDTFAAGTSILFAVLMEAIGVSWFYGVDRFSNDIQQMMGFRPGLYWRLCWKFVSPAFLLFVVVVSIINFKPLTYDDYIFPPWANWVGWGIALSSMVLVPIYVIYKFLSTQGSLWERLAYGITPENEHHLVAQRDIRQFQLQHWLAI

[13] = molecular target: Kappa-type opioid receptor (Homo sapiens) (UniProt P41145); conditions: Compound concentration 10.0 uM
[14] = molecular target: T1, Dual specificity protein kinase TTK (Homo sapiens) (UniProt P33981); test: TTK SGC Tm panel (DSF); conditions: for ΔTm: Compound concentration 10.0 uM
T1 sequence (whole entry): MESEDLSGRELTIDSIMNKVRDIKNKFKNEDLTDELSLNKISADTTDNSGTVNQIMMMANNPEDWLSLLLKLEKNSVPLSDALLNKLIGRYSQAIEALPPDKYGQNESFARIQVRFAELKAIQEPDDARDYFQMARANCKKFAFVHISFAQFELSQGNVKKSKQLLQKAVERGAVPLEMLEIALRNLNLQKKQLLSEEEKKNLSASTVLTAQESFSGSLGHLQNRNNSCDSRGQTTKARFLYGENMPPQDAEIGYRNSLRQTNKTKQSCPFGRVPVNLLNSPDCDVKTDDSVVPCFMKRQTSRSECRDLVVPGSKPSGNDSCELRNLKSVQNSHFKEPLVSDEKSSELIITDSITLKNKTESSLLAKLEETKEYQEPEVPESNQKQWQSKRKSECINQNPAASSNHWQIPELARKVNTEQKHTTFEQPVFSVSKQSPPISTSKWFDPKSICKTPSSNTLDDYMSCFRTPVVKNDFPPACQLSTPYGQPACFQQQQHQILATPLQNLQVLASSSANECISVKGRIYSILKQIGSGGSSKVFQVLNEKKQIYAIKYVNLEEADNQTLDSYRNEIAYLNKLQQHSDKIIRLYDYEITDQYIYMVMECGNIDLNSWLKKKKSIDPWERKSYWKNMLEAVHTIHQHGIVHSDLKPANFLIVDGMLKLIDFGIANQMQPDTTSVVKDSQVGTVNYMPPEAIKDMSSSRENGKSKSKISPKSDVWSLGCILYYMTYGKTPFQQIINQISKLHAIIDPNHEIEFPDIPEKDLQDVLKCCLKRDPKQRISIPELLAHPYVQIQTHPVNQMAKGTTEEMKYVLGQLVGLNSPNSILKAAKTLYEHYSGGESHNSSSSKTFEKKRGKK

[15] = molecular target: T2, Calcium/calmodulin-dependent protein kinase type IV (Homo sapiens) (UniProt Q16566); test: CAMK4 SGC Tm panel (DSF); conditions: for ΔTm: Compound concentration 10.0 uM
T2 sequence (whole entry): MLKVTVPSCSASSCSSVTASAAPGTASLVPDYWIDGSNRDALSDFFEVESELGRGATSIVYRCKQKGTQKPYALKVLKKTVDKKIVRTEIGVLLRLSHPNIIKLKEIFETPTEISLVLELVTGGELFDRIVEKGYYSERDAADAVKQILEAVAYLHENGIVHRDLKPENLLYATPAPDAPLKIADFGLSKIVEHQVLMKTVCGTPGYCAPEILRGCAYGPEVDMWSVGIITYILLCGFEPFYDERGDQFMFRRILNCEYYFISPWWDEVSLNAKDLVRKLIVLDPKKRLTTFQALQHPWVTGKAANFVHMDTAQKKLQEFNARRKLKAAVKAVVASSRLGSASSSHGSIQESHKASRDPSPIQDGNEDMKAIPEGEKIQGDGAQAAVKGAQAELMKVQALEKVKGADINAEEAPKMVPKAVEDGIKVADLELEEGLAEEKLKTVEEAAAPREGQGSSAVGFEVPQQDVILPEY

[16] = molecular target: T3, Muscarinic acetylcholine receptor M1 (Homo sapiens) (UniProt P11229); conditions: Compound concentration 10.0 uM
T3 sequence (whole entry): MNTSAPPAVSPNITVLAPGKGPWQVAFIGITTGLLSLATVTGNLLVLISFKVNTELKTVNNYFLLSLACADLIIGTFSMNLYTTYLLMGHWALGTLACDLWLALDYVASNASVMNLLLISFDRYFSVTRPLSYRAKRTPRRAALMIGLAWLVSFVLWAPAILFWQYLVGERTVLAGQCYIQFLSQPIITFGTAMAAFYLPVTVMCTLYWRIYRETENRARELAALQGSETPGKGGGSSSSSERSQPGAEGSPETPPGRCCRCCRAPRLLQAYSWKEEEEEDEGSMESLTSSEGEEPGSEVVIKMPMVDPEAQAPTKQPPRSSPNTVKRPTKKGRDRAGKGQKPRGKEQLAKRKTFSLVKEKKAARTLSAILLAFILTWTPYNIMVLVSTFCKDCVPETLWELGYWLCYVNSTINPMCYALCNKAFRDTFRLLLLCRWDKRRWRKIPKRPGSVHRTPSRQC

[17] = molecular target: Serine/threonine-protein kinase pim-3 (Homo sapiens) (UniProt Q86V86); test: PIM3 SGC Tm panel (DSF); conditions: for ΔTm: Compound concentration 10.0 uM
[18] = molecular target: Serine/threonine-protein kinase MRCK alpha (Homo sapiens) (UniProt Q5VT25); test: CDC42BPA SGC Tm panel (DSF); conditions: for ΔTm: Compound concentration 10.0 uM

Sequence of Casein kinase I isoform delta (Homo sapiens) (P48730 whole entry, looked up, canonical isoform): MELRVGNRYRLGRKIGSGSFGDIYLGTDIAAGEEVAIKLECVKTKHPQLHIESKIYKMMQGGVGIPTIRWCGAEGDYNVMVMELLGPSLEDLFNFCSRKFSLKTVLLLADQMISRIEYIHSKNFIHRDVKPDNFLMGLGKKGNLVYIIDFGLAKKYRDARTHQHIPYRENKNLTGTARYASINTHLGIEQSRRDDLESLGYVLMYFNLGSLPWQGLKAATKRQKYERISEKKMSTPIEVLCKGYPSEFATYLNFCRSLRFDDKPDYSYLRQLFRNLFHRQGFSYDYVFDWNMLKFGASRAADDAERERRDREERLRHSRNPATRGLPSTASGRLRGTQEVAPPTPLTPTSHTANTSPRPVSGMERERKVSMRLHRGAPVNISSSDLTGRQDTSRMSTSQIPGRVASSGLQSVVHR
Sequence of SRSF protein kinase 1 (Homo sapiens) (Q96SB4 whole entry, canonical isoform): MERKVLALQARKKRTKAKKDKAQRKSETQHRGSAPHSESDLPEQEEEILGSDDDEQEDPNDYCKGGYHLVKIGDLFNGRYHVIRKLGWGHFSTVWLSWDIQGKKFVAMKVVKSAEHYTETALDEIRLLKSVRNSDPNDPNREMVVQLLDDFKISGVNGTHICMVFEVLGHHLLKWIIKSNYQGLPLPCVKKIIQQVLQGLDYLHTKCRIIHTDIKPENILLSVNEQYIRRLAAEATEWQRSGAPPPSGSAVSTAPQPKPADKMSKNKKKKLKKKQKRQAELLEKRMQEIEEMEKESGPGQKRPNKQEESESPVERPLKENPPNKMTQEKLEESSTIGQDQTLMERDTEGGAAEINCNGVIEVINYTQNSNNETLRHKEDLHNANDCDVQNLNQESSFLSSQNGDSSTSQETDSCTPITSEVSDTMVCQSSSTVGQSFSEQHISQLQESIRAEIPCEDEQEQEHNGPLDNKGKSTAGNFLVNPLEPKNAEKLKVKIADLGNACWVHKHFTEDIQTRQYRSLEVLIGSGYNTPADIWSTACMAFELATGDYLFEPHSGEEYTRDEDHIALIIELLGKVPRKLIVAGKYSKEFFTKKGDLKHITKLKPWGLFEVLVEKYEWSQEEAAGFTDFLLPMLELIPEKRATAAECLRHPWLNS

Row | Compound | delta Tm Staurosporine positive control [1] | ΔTm [1] | delta Tm Staurosporine positive control [2] | ΔTm [2] | delta Tm Staurosporine positive control [3] | ΔTm [3] | delta Tm Staurosporine positive control [4] | ΔTm [4] | inhibition [5] | delta Tm Staurosporine positive control [6] | ΔTm [6] | delta Tm Staurosporine positive control [7] | ΔTm [7] | delta Tm Staurosporine positive control [8] | ΔTm [8] | delta Tm Staurosporine positive control [9] | ΔTm [9] | delta Tm Staurosporine positive control [10] | ΔTm [10] | delta Tm Staurosporine positive control [11] | further results
1 | CCC[C@H]1CNCc2c1[nH]c(=O)c(C#N)c2N1CCC2(CC1)CC2 | 7.17 | -0.269 | 2.05 | -0.142 | 4.78 | -0.0815 | 11.2 | -0.418 | -5% | 17.8 | 3.11 | -0.489 | -0.134 | 3.56 | -0.182 | 7.03 | 0.0527 | 4.21 | -0.244 | 18.2 | ΔTm [11]: 0.118; inhibition [12]: -3.72%; inhibition [13]: 34.3%; delta Tm Staurosporine positive control [14]: 7.9; ΔTm [14]: 0.222; delta Tm Staurosporine positive control [15]: 8.45; ΔTm [15]: -0.566; inhibition [16]: 0.28%; delta Tm Staurosporine positive control [17]: 16.7; ΔTm [17]: -0.159; delta Tm Staurosporine positive control [18]: 3.2; ΔTm [18]: 0.0908
2 | CCC[C@@H]1CNCc2c1[nH]c(=O)c(C#N)c2N1CCC2(CC1)CC2 | 7.17 | -0.188 | 2.05 | 0.052 | 4.78 | -0.0442 | 11.2 | -0.4 | -4.19% | 17.8 | -0.386 | -0.489 | -0.956 | 3.56 | -0.19 | 7.03 | 0.00192 | 4.21 | -0.242 | 18.2 | ΔTm [11]: -0.155; inhibition [12]: -7.72%; inhibition [13]: 29.3%; delta Tm Staurosporine positive control [14]: 7.9; ΔTm [14]: 0.316; delta Tm Staurosporine positive control [15]: 8.45; ΔTm [15]: -1.12; inhibition [16]: -0.37%; delta Tm Staurosporine positive control [17]: 16.7; ΔTm [17]: -0.32; delta Tm Staurosporine positive control [18]: 3.2; ΔTm [18]: 0.159
